Tests used:
[1] = tested on: Mycosphaerella graminicola (Septoria tritici); assay: Mycosphaerella graminicola (Septoria tritici) / liquid culture (Septoria blotch); type: cell-based; conditions: Zymoseptoria tritici, PDB potato dextrose broth, 96-well plate, 24° C., 4-5 days after application, read-out: control of Mycosphaerella graminicola (inhibition of growth, photometric)
Pyrenophora teres = Pyrenophora teres / barley / leaf disc preventative (net blotch); type: in vivo; conditions: foliar, barley cv Hasso leaf segments, inoculated two days after application, assessed 5-7 days after application, read-out: control of Pyrenophora teres (disease control compared to untreated)
[2] = tested on: Botryotinia fuckeliana (Botrytis cinerea); assay: Botryotinia fuckeliana (Botrytis cinerea) / liquid culture (gray mould); type: cell-based; conditions: Vogels broth, 96-well plate, 24° C., 3-4 days after application, read-out: control of Botryotinia fuckeliana (inhibition of growth, photometric)
[3] = tested on: Blumeria graminis f. sp. tritici (Erysiphe graminis f. sp. tritici); assay: Blumeria graminis f. sp. tritici (Erysiphe graminis f. sp. tritici) / wheat / leaf disc preventative (powdery mildew on wheat); type: in vivo; conditions: foliar, wheat cv. Kanzler leaf segments, inoculated 1 day after application, assessed 6-8 days after application, read-out: control of Blumeria graminis (percent disease control compared to untreated)
Gaeumannomyces graminis = Gaeumannomyces graminis / liquid culture (take-all of cereals); type: cell-based; conditions: liquid culture of mycelial fragments, PDB potato dextrose broth, 96-well plate, 24° C., 4-5 days after application, read-out: control of Gaeumannomyces graminis (inhibition of growth, photometric)
[4] = tested on: Mycosphaerella arachidis (Cercospora arachidicola); assay: Mycosphaerella arachidis (Cercospora arachidicola) / liquid culture (early leaf spot); type: cell-based; conditions: PDB potato dextrose broth, 96-well plate, 24° C., 4-5 days after application, read-out: control of Mycosphaerella arachidis (inhibition of growth, photometric)
[5] = tested on: Puccinia recondita f. sp. tritici; assay: Puccinia recondita f. sp. tritici / wheat / leaf disc preventative (brown rust); type: in vivo; conditions: foliar, wheat cv Kanzler leaf segments, inoculated 1 day after application, assessed 7-9 days after application, read-out: control of Puccinia recondita f. sp. tritici (percent disease control compared to untreated)
Method: Puccinia recondita f. sp. tritici/Wheat/Leaf Disc Preventative (Brown Rust) Wheat leaf segments cultivated variety (cv) Kanzler were placed on agar in 24-well plates and sprayed with formulated test compound diluted in water at an application rate of 200 ppm. The leaf disks were inoculated with a spore suspension of the fungus 1 day after application. The inoculated leaf segments were incubated at 19° C. and 75% relative humidity under a light regime of 12/12 h (light/dark) in a climate cabinet and the activity of a compound was assessed as percent disease control compared to untreated when an appropriate level of disease damage appears in untreated check leaf segments (7-9 days after application). […].103

[6] = tested on: Phaeosphaeria nodorum (Septoria nodorum); assay: Phaeosphaeria nodorum (Septoria nodorum) / wheat / leaf disc preventative (glume blotch); type: in vivo; conditions: Parastagonospora nodorum, foliar, wheat cv Kanzler leaf segments, inoculated 2 days after application, assessed 5-7 days after application, read-out: control of Phaeosphaeria nodorum (percent disease control compared to untreated)
[7] = tested on: Glomerella lagenarium (Colletotrichum lagenarium); assay: Glomerella lagenarium (Colletotrichum lagenarium) / liquid culture (anthracnose); type: cell-based; conditions: Colletotrichum orbiculare, PDB potato dextrose broth, 96-well plate, 24° C., 3-4 days after application, read-out: control of Glomerella lagenarium (inhibition of growth, photometric)
[8] = tested on: Puccinia recondita f. sp. tritici; assay: Puccinia recondita f. sp. tritici / wheat / leaf disc curative (brown rust); type: in vivo; conditions: foliar, wheat cv Kanzler leaf segments, applied 1 day after inoculation, assessed 6-8 days after application, read-out: control of Puccinia recondita f. sp. tritici (percent disease control compared to untreated)
Method: Puccinia recondita f. sp. tritici/Wheat/Leaf Disc Curative (Brown Rust): Wheat leaf segments cv Kanzler were placed on agar in 24-well plates. The leaf segments were inoculated with a spore suspension of the fungus. The plates were stored in darkness at 19° C. and 75% relative humidity. The formulated test compound diluted in water was applied at an application rate of 200 ppm 1 day after inoculation.

[9] = tested on: Monographella nivalis (Microdochium nivale); assay: Monographella nivalis (Microdochium nivale) / liquid culture (foot rot cereals); type: cell-based; conditions: PDB potato dextrose broth, 96-well plate, 24° C., 4-5 days after application, read-out: control of Monographella nivalis (inhibition of growth, photometric)
Method: Monographella nivalis (Microdochium nivale)/Liquid Culture (Foot Rot Cereals): Conidia of the fungus from cryogenic storage were directly mixed into nutrient broth (PDB potato dextrose broth). After placing a DMSO solution of test compound into a 96-well microtiter plate at an application rate of 200 ppm, the nutrient broth containing the fungal spores was added. The test plates were incubated at 24° C. and the inhibition of growth was determined photometrically 4-5 days after application. […].103

[10] = tested on: Thanatephorus cucumeris (Rhizoctonia solani); assay: Thanatephorus cucumeris (Rhizoctonia solani) / liquid culture (foot rot, damping-off); type: cell-based; conditions: liquid culture of mycelia fragments, PDB potato dextrose broth, 96-well plate, 24° C., 3-4 days after application, read-out: control of Thanatephorus cucumeris (inhibition of growth, photometric)
Method: Thanatephorus cucumeris (Rhizoctonia solani)/Liquid Culture (Foot Rot, Damping-Off): Mycelia fragments of a newly grown liquid culture of the fungus are directly mixed into nutrient broth (PDB potato dextrose broth). After placing a DMSO solution of the test compounds into a 96-well microtiter plate at an application rate of 200 ppm, the nutrient broth containing the fungal material was added. The test plates were incubated at 24° C. and the inhibition of growth was determined photometrically 3-4 days after application.

CO/N=C(/c1cccc(CCCO/N=C(\C)c2cccc(C)n2)n1)C(C)C (single isomer, unassigned) [P.23A]
≥ 80%: inhibition at 200 ppm [1] | pest or weed control at 200 ppm (Pyrenophora teres) | inhibition at 200 ppm [2] | pest or weed control at 200 ppm [3] | inhibition at 200 ppm (Gaeumannomyces graminis) | inhibition at 200 ppm [4]

CCO/N=C(\C)c1cccc(CCCO/N=C(\C)c2cccc(C)n2)n1 [P.01]
≥ 80%: inhibition at 200 ppm [1] | pest or weed control at 200 ppm (Pyrenophora teres) | inhibition at 200 ppm [2] | pest or weed control at 200 ppm [3] | pest or weed control at 200 ppm [5] | pest or weed control at 200 ppm [6] | inhibition at 200 ppm [7] | pest or weed control at 200 ppm [8] | inhibition at 200 ppm [4]

C#CCO/N=C(\C)c1cccc(CCCO/N=C(\C)c2cccc(C)n2)n1 [P.02]
≥ 80%: inhibition at 200 ppm [1] | inhibition at 200 ppm [2] | inhibition at 200 ppm [9] | inhibition at 200 ppm (Gaeumannomyces graminis) | pest or weed control at 200 ppm [6] | pest or weed control at 200 ppm [8] | inhibition at 200 ppm [4]

CO/N=C(\C)c1cccc(CC(C)CO/N=C(\C)c2cccc(C)n2)n1 (stereo not shown) [P.03]
≥ 80%: inhibition at 200 ppm [1] | pest or weed control at 200 ppm (Pyrenophora teres) | inhibition at 200 ppm [2] | pest or weed control at 200 ppm [3] | pest or weed control at 200 ppm [5] | inhibition at 200 ppm [9] | pest or weed control at 200 ppm [6] | inhibition at 200 ppm [10] | inhibition at 200 ppm [7] | pest or weed control at 200 ppm [8] | inhibition at 200 ppm [4]

CO/N=C(\C)c1cccc(CCCO/N=C(\C)c2cccc(-c3ccccc3OC)n2)n1 [P.08]
≥ 80%: inhibition at 200 ppm [1] | pest or weed control at 200 ppm (Pyrenophora teres) | inhibition at 200 ppm [2] | pest or weed control at 200 ppm [3] | pest or weed control at 200 ppm [5] | inhibition at 200 ppm [9] | pest or weed control at 200 ppm [6] | pest or weed control at 200 ppm [8] | inhibition at 200 ppm [4]

C=CCO/N=C(\C)c1cccc(CCCO/N=C(\C)c2cccc(C)n2)n1 [P.09]
≥ 80%: inhibition at 200 ppm [1] | pest or weed control at 200 ppm (Pyrenophora teres) | inhibition at 200 ppm [2] | pest or weed control at 200 ppm [3] | pest or weed control at 200 ppm [5] | inhibition at 200 ppm [9] | pest or weed control at 200 ppm [6] | inhibition at 200 ppm [7] | pest or weed control at 200 ppm [8] | inhibition at 200 ppm [4]

CO/N=C(\C)c1cccc(CCCO/N=C(\C)c2cccc(-c3cccc(OC)c3)n2)n1 [P.14]
≥ 80%: inhibition at 200 ppm [1] | pest or weed control at 200 ppm (Pyrenophora teres) | pest or weed control at 200 ppm [5] | inhibition at 200 ppm (Gaeumannomyces graminis) | pest or weed control at 200 ppm [6] | inhibition at 200 ppm [4]

CCc1cccc(/C(C)=N/OCCCc2cccc(/C(C)=N/OC)n2)n1 [P.19]
≥ 80%: inhibition at 200 ppm [1] | pest or weed control at 200 ppm (Pyrenophora teres) | inhibition at 200 ppm [2] | pest or weed control at 200 ppm [6] | inhibition at 200 ppm [10] | pest or weed control at 200 ppm [8] | inhibition at 200 ppm [4]

CC/C(=N\OC)c1cccc(CCCO/N=C(\C)c2cccc(C)n2)n1 [P.22]
≥ 80%: inhibition at 200 ppm [1] | pest or weed control at 200 ppm (Pyrenophora teres) | inhibition at 200 ppm [2] | pest or weed control at 200 ppm [3] | pest or weed control at 200 ppm [5] | inhibition at 200 ppm [9] | inhibition at 200 ppm (Gaeumannomyces graminis) | pest or weed control at 200 ppm [6] | inhibition at 200 ppm [7] | pest or weed control at 200 ppm [8] | inhibition at 200 ppm [4]

CO/N=C(\C)c1cccc(CCCO/N=C(/c2ccccn2)c2ncc(C(F)(F)F)cc2Cl)n1 [P.51]
≥ 80%: inhibition at 200 ppm [1] | inhibition at 200 ppm [2] | inhibition at 200 ppm [9] | inhibition at 200 ppm (Gaeumannomyces graminis) | pest or weed control at 200 ppm [6] | inhibition at 200 ppm [10] | inhibition at 200 ppm [7] | inhibition at 200 ppm [4]

CO/N=C(\C)c1cccc(CCCO/N=C2\CCCc3c2nc2ccccc2c3C)n1 [P.55]
≥ 80%: inhibition at 200 ppm [1] | pest or weed control at 200 ppm (Pyrenophora teres) | inhibition at 200 ppm [2] | pest or weed control at 200 ppm [3] | pest or weed control at 200 ppm [5] | inhibition at 200 ppm [9] | inhibition at 200 ppm (Gaeumannomyces graminis) | pest or weed control at 200 ppm [6] | inhibition at 200 ppm [7] | pest or weed control at 200 ppm [8] | inhibition at 200 ppm [4]

CO/N=C(\C)c1cccc(CCCO/N=C2\CCCc3ccc(OC)nc32)n1 [P.56]
≥ 80%: inhibition at 200 ppm [1] | inhibition at 200 ppm [2] | pest or weed control at 200 ppm [3] | inhibition at 200 ppm [9] | inhibition at 200 ppm (Gaeumannomyces graminis) | pest or weed control at 200 ppm [6] | inhibition at 200 ppm [10] | inhibition at 200 ppm [7] | pest or weed control at 200 ppm [8] | inhibition at 200 ppm [4]

CO/N=C(\C)c1cccc(CCCO/N=C2\CCCc3c2nc2cc(OC)ccc2c3C)n1 [P.69]
≥ 80%: inhibition at 200 ppm [1] | inhibition at 200 ppm [2] | pest or weed control at 200 ppm [3] | pest or weed control at 200 ppm [5] | inhibition at 200 ppm [9] | inhibition at 200 ppm (Gaeumannomyces graminis) | pest or weed control at 200 ppm [6] | inhibition at 200 ppm [10] | inhibition at 200 ppm [7] | pest or weed control at 200 ppm [8] | inhibition at 200 ppm [4]

CO/N=C(\C)c1cccc(CCCO/N=C2\CCCc3c2nc2cc(Cl)ccc2c3C)n1 [P.83]
≥ 80%: inhibition at 200 ppm [1] | pest or weed control at 200 ppm (Pyrenophora teres) | inhibition at 200 ppm [2] | pest or weed control at 200 ppm [3] | inhibition at 200 ppm (Gaeumannomyces graminis) | inhibition at 200 ppm [7] | inhibition at 200 ppm [4]

CO/N=C(\C)c1cccc(CCCO/N=C2\CCCc3c2nc2ccc(Br)cc2c3C)n1 [P.84]
≥ 80%: inhibition at 200 ppm [1] | pest or weed control at 200 ppm (Pyrenophora teres) | inhibition at 200 ppm [2] | pest or weed control at 200 ppm [3] | inhibition at 200 ppm (Gaeumannomyces graminis) | pest or weed control at 200 ppm [6] | inhibition at 200 ppm [7] | inhibition at 200 ppm [4]

CO/N=C(\C)c1cccc(CCCO/N=C2\CCCc3c2nc2ccccc2c3Cl)n1 [P.95]
≥ 80%: inhibition at 200 ppm [1] | pest or weed control at 200 ppm (Pyrenophora teres) | inhibition at 200 ppm [2] | inhibition at 200 ppm [9] | inhibition at 200 ppm (Gaeumannomyces graminis) | pest or weed control at 200 ppm [6] | inhibition at 200 ppm [10] | inhibition at 200 ppm [7] | inhibition at 200 ppm [4]

CO/N=C(\C)c1cc(OC)cc(CCCO/N=C(\C)c2cccc(C)n2)n1 [P.103]
≥ 80%: inhibition at 200 ppm [1] | pest or weed control at 200 ppm (Pyrenophora teres) | inhibition at 200 ppm [2] | pest or weed control at 200 ppm [3] | pest or weed control at 200 ppm [5] | inhibition at 200 ppm [9] | inhibition at 200 ppm (Gaeumannomyces graminis) | pest or weed control at 200 ppm [6] | inhibition at 200 ppm [7] | pest or weed control at 200 ppm [8] | inhibition at 200 ppm [4]

Source: US20140309244A1, “NOVEL MICROBIOCIDES” (SYNGENTA PARTICIPATIONS AG, priority 2010, published 2014)
